Tests used:
TGF-β receptor ALK4 = molecular target: T1, TGF-β receptor ALK4 (Homo sapiens, UniProt P36896); details: cited from earlier work
T1 sequence (P36896 24-505): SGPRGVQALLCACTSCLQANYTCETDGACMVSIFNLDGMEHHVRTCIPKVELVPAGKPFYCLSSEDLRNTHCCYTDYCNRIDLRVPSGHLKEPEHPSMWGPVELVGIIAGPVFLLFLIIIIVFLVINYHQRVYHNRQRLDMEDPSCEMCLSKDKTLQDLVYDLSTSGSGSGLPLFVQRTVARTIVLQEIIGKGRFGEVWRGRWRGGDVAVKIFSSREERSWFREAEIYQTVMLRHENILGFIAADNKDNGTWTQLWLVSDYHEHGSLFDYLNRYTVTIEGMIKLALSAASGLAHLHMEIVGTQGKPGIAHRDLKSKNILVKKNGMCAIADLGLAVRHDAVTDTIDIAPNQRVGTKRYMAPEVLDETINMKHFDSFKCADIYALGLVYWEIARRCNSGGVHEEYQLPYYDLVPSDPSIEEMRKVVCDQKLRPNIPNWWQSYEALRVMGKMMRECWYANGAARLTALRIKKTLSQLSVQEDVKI

TGF-β receptor ALK7 = molecular target: T2, TGF-β receptor ALK7 (Homo sapiens, UniProt Q8NER5); details: cited from earlier work
T2 sequence (Q8NER5 21-493): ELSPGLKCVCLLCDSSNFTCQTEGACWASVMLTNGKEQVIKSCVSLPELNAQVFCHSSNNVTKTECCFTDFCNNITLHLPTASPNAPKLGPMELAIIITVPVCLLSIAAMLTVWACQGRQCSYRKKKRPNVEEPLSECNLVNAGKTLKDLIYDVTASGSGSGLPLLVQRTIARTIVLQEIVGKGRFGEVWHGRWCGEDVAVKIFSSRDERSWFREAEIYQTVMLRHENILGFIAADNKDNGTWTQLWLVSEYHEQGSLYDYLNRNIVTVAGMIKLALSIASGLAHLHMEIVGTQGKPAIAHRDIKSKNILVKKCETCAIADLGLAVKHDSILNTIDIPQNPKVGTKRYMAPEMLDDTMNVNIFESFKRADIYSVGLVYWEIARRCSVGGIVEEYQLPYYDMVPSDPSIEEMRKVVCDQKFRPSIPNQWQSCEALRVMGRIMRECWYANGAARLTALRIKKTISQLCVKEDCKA

TGF-β receptor ALK5 = molecular target: T3, TGF-β receptor ALK5 (Homo sapiens, UniProt P36897); details: cited from earlier work
T3 sequence (P36897 34-503): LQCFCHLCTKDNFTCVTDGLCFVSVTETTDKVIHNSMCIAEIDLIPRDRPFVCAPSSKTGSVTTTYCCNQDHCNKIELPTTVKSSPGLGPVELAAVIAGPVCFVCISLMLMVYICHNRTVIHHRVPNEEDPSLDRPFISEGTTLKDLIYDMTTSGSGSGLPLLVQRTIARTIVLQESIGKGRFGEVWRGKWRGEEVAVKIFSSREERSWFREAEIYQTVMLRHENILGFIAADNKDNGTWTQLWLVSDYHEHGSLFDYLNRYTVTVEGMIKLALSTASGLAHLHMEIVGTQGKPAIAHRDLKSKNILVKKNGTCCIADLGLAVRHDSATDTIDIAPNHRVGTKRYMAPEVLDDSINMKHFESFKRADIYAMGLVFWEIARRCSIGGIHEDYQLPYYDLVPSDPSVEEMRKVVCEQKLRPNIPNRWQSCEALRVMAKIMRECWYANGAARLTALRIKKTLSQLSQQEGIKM

mucin 2 = assay: Detection of mucin 2 mRNA (real-time RT-PCR) in human iPS cell-derived intestinal epithelial cells; assay type: cell-based
Source text: (§1) iPS cells were allowed to differentiate into intestinal stem cells, which were then subcultured once. Thereafter, the cells were subjected to a maintenance culture according to the culture method of intestinal stem cells, which had been established in the above-described studies, and were then allowed to differentiate into intestinal epithelial cells.
(§2) After the differentiated intestinal epithelial cells had been recovered, RNA was extracted using Agencourt (registered trademark) RNAdvance™ Tissue Kit, in accordance with the instruction manual included therewith.
(§3) Complementary DNA (cDNA) was synthesized using ReverTra Ace (registered trademark) qPCR RT Master Mix, in accordance with the instruction manual included therewith.
(§4) Real-Time RT-PCR was carried out on cDNA used as a template, using KAPA SYBR Fast qPCR Kit, in accordance with the instruction manual included therewith.

chromogranin A (CgA) = assay: Detection of CgA mRNA (real-time RT-PCR) in human iPS cell-derived intestinal epithelial cells; assay type: cell-based
Source text: as §1, §2, §3, §4

[1] = 100 μM or 200 μM rebamipide together with 200 μM indomethacin, 6 days

In the case of `Cc1cccc(-c2nn(C(=S)Nc3ccccc3)cc2-c2ccnc3ccccc23)n1` [A-83-01], the “inhibitory activity against TGF-β receptor ALK4” value (TGF-β receptor ALK4) is given as “exhibited inhibitory activity”, the “inhibitory activity against TGF-β receptor ALK7” value (TGF-β receptor ALK7) is given as “exhibited inhibitory activity” and the “inhibitory activity against TGF-β receptor ALK5” value (TGF-β receptor ALK5) is given as “exhibited inhibitory activity”.

In the case of `O=C(NC(Cc1cc(=O)[nH]c2ccccc12)C(=O)O)c1ccc(Cl)cc1` (centres unmarked) [rebamipide], the “expression level of mucin 2 (mRNA expression level)” value (mucin 2; 50 μM, 100 μM and 200 μM added to the medium for 6 days, versus control (Con)) is reported as “increased”, the “decrease in the expression of mucin 2 (mRNA expression level) caused by indomethacin” value (mucin 2; [1]) is reported as “tended to be suppressed” and the cytotoxicity (mucin 2; 200 μM added to the medium (R200)) is reported as “likely to cause cytotoxicity”. For the same compound, the “increase in the expression level of CgA (mRNA expression level)” value (chromogranin A (CgA); 50 μM, 100 μM and 200 μM added to the medium for 6 days) was “not particularly observed” and the “decrease in the expression level of CgA (mRNA expression level) caused by indomethacin” value (chromogranin A (CgA); [1]) was “tended to be suppressed”.

From patent US11725189B2, “Maintenance culture of induced pluripotent stem cell-derived intestinal stem cells” (PUBLIC UNIVERSITY CORPORATION NAGOYA CITY UNIVERSITY, priority 2017, dated 2023)
